Source: patent US9902736B2, “1-oxo/acylation-14-acylated oridonin derivative, preparation method therefor and application thereof” (HANGZHOU BENSHENG PHARMACEUTICAL CO., LTD., priority 2012, dated 2018)
≈ marks a conversion by molar mass, not a printed value.

What follows are compounds tested on RPMI 8226 (assay: Multiple myeloma cell growth inhibition, MTT, 72 h). Details: Homo sapiens.
Format: cell-based
Protocol: Multiple myeloma cell lines: RPMI8226 (multiple myeloma), purchased from Fuxiang Bio-tech Co. Ltd., Shanghai, China.
(§1) 6000 well-growing cells were obtained and inoculated into wells of a 96-well cell culture plate. […] On the next day, the 1-oxo/acylated-14-acylated oridonin derivatives of different concentrations were added and mixed uniformly. The plate was placed in a carbon dioxide cell incubator (5% CO2) at 37° C. and incubated for 72 hours. Then the viable cell concentration was determined by MTT method.

IC50 [µg/mL] | IC90 [µg/mL] | SMILES
0.37 (≈ 0.77 µM) | 1.72 (≈ 3.58 µM) | C=C1C(=O)[C@]23[C@H](OC(=O)c4cccc(C)c4)[C@H]1CC[C@H]2[C@@]12CO[C@@]3(O)[C@@H](O)[C@@H]1C(C)(C)CCC2=O [BS-OR-008]

The compounds below were run on Hep-2 (assay: Solid tumor cell growth inhibition, MTT, 72 h). Details: Homo sapiens, HEp-2; 72 h, MTT.
Format: cell-based, human
Protocol: (§2) 6000 well-growing human solid tumor cells were obtained and inoculated into wells of a 96-well cell culture plate. The culture medium was DMEM High Glucose cell culture medium containing 10% fetal bovine serum. The plate was placed in a carbon dioxide cell incubator (5% CO2) at 37° C. and incubated for 24 hours. After added with 1-oxo/acylated-14-acylated oridonin derivatives of different concentration and mixed uniformly, the plate was placed in a carbon dioxide cell incubator (5% CO2) at 37° C. and incubated for 72 hours. Then the viable cell concentration was determined by MTT method.

IC50 [µg/mL] | IC90 [µg/mL] | SMILES
3.11 (≈ 6.47 µM) | 13.2 (≈ 27.4 µM) | C=C1C(=O)[C@]23[C@H](OC(=O)c4cccc(C)c4)[C@H]1CC[C@H]2[C@@]12CO[C@@]3(O)[C@@H](O)[C@@H]1C(C)(C)CCC2=O [BS-OR-008]

These compounds were tested on MGC-803 (assay: Solid tumor cell growth inhibition, MTT, 72 h). Details: Homo sapiens, MGC-803; 72 h, MTT.
Format: cell-based, human
Protocol: as §2

IC50 [µg/mL] | IC90 [µg/mL] | SMILES
1.39 (≈ 2.89 µM) | 3.89 (≈ 8.09 µM) | C=C1C(=O)[C@]23[C@H](OC(=O)c4cccc(C)c4)[C@H]1CC[C@H]2[C@@]12CO[C@@]3(O)[C@@H](O)[C@@H]1C(C)(C)CCC2=O [BS-OR-008]

The compounds below were run on CNE (assay: Solid tumor cell growth inhibition, MTT, 72 h). Details: Homo sapiens, CNE; 72 h, MTT.
Format: cell-based, human
Protocol: as §2

IC50 [µg/mL] | IC90 [µg/mL] | SMILES
2.16 (≈ 4.49 µM) | 10.5 (≈ 21.8 µM) | C=C1C(=O)[C@]23[C@H](OC(=O)c4cccc(C)c4)[C@H]1CC[C@H]2[C@@]12CO[C@@]3(O)[C@@H](O)[C@@H]1C(C)(C)CCC2=O [BS-OR-008]

The compounds below were run on Hela (assay: Solid tumor cell growth inhibition, MTT, 72 h). Details: Homo sapiens, HeLa; 72 h, MTT.
Format: cell-based, human
Protocol: as §2

IC50 [µg/mL] | IC90 [µg/mL] | SMILES
1.45 (≈ 3.02 µM) | 3.9 (≈ 8.12 µM) | C=C1C(=O)[C@]23[C@H](OC(=O)c4cccc(C)c4)[C@H]1CC[C@H]2[C@@]12CO[C@@]3(O)[C@@H](O)[C@@H]1C(C)(C)CCC2=O [BS-OR-008]

The compounds below were run on SK-OV-3 (assay: Solid tumor cell growth inhibition, MTT, 72 h). Details: Homo sapiens, SK-OV-3; 72 h, MTT; read-out: IC50 SK-OV-3.
Format: cell-based
Protocol: as §2

IC50 [µg/mL] | SMILES
1.59 (≈ 3.31 µM) | C=C1C(=O)[C@]23[C@H](OC(=O)c4cccc(C)c4)[C@H]1CC[C@H]2[C@@]12CO[C@@]3(O)[C@@H](O)[C@@H]1C(C)(C)CCC2=O [BS-OR-008]

Same assay, conditions: Homo sapiens, SK-OV-3; 72 h, MTT; read-out: IC90 SK-OV-3

IC90 [µg/mL] | SMILES
3.67 (≈ 7.64 µM) | C=C1C(=O)[C@]23[C@H](OC(=O)c4cccc(C)c4)[C@H]1CC[C@H]2[C@@]12CO[C@@]3(O)[C@@H](O)[C@@H]1C(C)(C)CCC2=O [BS-OR-008]

The compounds below were run on Hep G2 (assay: Solid tumor cell growth inhibition, MTT, 72 h). Details: Homo sapiens, HepG2.
Format: cell-based
Protocol: as §2

IC50 [µg/mL] | IC90 [µg/mL] | SMILES
1.74 (≈ 3.62 µM) | 12.6 (≈ 26.2 µM) | C=C1C(=O)[C@]23[C@H](OC(=O)c4cccc(C)c4)[C@H]1CC[C@H]2[C@@]12CO[C@@]3(O)[C@@H](O)[C@@H]1C(C)(C)CCC2=O [BS-OR-008]

The compounds below were run on A549 (assay: Solid tumor cell growth inhibition, MTT, 72 h). Details: Homo sapiens.
Format: cell-based
Protocol: as §2

IC50 [µg/mL] | IC90 [µg/mL] | SMILES
2.75 (≈ 5.72 µM) | 6.86 (≈ 14.3 µM) | C=C1C(=O)[C@]23[C@H](OC(=O)c4cccc(C)c4)[C@H]1CC[C@H]2[C@@]12CO[C@@]3(O)[C@@H](O)[C@@H]1C(C)(C)CCC2=O [BS-OR-008]

These compounds were tested on CaEs-17 (assay: Solid tumor cell growth inhibition, MTT, 72 h). Details: Homo sapiens, CaEs17.
Format: cell-based
Protocol: as §2

IC50 [µg/mL] | IC90 [µg/mL] | SMILES
1.22 (≈ 2.54 µM) | 4.75 (≈ 9.88 µM) | C=C1C(=O)[C@]23[C@H](OC(=O)c4cccc(C)c4)[C@H]1CC[C@H]2[C@@]12CO[C@@]3(O)[C@@H](O)[C@@H]1C(C)(C)CCC2=O [BS-OR-008]

What follows are compounds tested on RKO (assay: Solid tumor cell growth inhibition, MTT, 72 h). Details: Homo sapiens.
Format: cell-based
Protocol: as §2

IC50 [µg/mL] | IC90 [µg/mL] | SMILES
0.47 (≈ 0.978 µM) | 0.94 (≈ 1.96 µM) | C=C1C(=O)[C@]23[C@H](OC(=O)c4cccc(C)c4)[C@H]1CC[C@H]2[C@@]12CO[C@@]3(O)[C@@H](O)[C@@H]1C(C)(C)CCC2=O [BS-OR-008]

These compounds were tested on Becap-37 (assay: Solid tumor cell growth inhibition, MTT, 72 h). Details: Homo sapiens.
Format: cell-based
Protocol: as §2

IC50 [µg/mL] | IC90 [µg/mL] | SMILES
1.08 (≈ 2.25 µM) | 3.35 (≈ 6.97 µM) | C=C1C(=O)[C@]23[C@H](OC(=O)c4cccc(C)c4)[C@H]1CC[C@H]2[C@@]12CO[C@@]3(O)[C@@H](O)[C@@H]1C(C)(C)CCC2=O [BS-OR-008]

These compounds were tested on MG-63 (assay: Solid tumor cell growth inhibition, MTT, 72 h). Details: Homo sapiens.
Format: cell-based
Protocol: as §2

IC50 [µg/mL] | IC90 [µg/mL] | SMILES
0.42 (≈ 0.874 µM) | 0.98 (≈ 2.04 µM) | C=C1C(=O)[C@]23[C@H](OC(=O)c4cccc(C)c4)[C@H]1CC[C@H]2[C@@]12CO[C@@]3(O)[C@@H](O)[C@@H]1C(C)(C)CCC2=O [BS-OR-008]

What follows are compounds tested on U87-MG (assay: Solid tumor cell growth inhibition, MTT, 72 h). Details: Homo sapiens, U-87 MG.
Format: cell-based
Protocol: as §2

IC50 [µg/mL] | IC90 [µg/mL] | SMILES
0.86 (≈ 1.79 µM) | 2.4 (≈ 4.99 µM) | C=C1C(=O)[C@]23[C@H](OC(=O)c4cccc(C)c4)[C@H]1CC[C@H]2[C@@]12CO[C@@]3(O)[C@@H](O)[C@@H]1C(C)(C)CCC2=O [BS-OR-008]

Each compound was assayed on PC-3 (assay: Solid tumor cell growth inhibition, MTT, 72 h). Details: Homo sapiens.
Format: cell-based
Protocol: as §2

IC50 [µg/mL] | IC90 [µg/mL] | SMILES
1.59 (≈ 3.31 µM) | 3.67 (≈ 7.64 µM) | C=C1C(=O)[C@]23[C@H](OC(=O)c4cccc(C)c4)[C@H]1CC[C@H]2[C@@]12CO[C@@]3(O)[C@@H](O)[C@@H]1C(C)(C)CCC2=O [BS-OR-008]

What follows are compounds tested on PANC-1 (assay: Solid tumor cell growth inhibition, MTT, 72 h). Details: Homo sapiens.
Format: cell-based
Protocol: as §2

IC50 [µg/mL] | IC90 [µg/mL] | SMILES
1.73 (≈ 3.6 µM) | 11.4 (≈ 23.6 µM) | C=C1C(=O)[C@]23[C@H](OC(=O)c4cccc(C)c4)[C@H]1CC[C@H]2[C@@]12CO[C@@]3(O)[C@@H](O)[C@@H]1C(C)(C)CCC2=O [BS-OR-008]

The compounds below were run on NB4 (assay: Leukemia cell growth inhibition, MTT, 72 h). Details: Homo sapiens, NB-4; 72 h, MTT.
Format: cell-based, human
Text: (§3) Leukemia cell lines: leukemia cell lines: K562/adr (drug-resistant, chronic myeloid leukemia, CML), NB4 (acute promyelocytic leukemia, AML), Kasumi-1 (acute myeloid leukemia M2 type, AML-M2), Jurkat (acute lymphoblastic leukemia, ALL), all of which were donated by Cancer Research Institute of Zhejiang University, China; and H9 (acute lymphoblastic leukemia, ALL), which was purchased from China Center for Type Culture Collection.
as §1, with “6000 well-growing leukemia cells were” for “6000 well-growing cells were”, “C. and was incubated for” for “C. and incubated for”

IC50 [µg/mL] | IC90 [µg/mL] | SMILES
0.29 (≈ 0.603 µM) | 0.92 (≈ 1.91 µM) | C=C1C(=O)[C@]23[C@H](OC(=O)c4cccc(C)c4)[C@H]1CC[C@H]2[C@@]12CO[C@@]3(O)[C@@H](O)[C@@H]1C(C)(C)CCC2=O [BS-OR-008]

Each compound was assayed on H9 (assay: Leukemia cell growth inhibition, MTT, 72 h). Details: Homo sapiens, H9; 72 h, MTT.
Format: cell-based, human
Text: as §3
as §1, with “6000 well-growing leukemia cells were” for “6000 well-growing cells were”, “C. and was incubated for” for “C. and incubated for”

IC50 [µg/mL] | IC90 [µg/mL] | SMILES
0.76 (≈ 1.58 µM) | 1.79 (≈ 3.72 µM) | C=C1C(=O)[C@]23[C@H](OC(=O)c4cccc(C)c4)[C@H]1CC[C@H]2[C@@]12CO[C@@]3(O)[C@@H](O)[C@@H]1C(C)(C)CCC2=O [BS-OR-008]

The compounds below were run on Jurkat (assay: Leukemia cell growth inhibition, MTT, 72 h). Details: Homo sapiens, Jurkat; 72 h, MTT.
Format: cell-based, human
Text: as §3
as §1, with “6000 well-growing leukemia cells were” for “6000 well-growing cells were”, “C. and was incubated for” for “C. and incubated for”

IC50 [µg/mL] | IC90 [µg/mL] | SMILES
0.73 (≈ 1.52 µM) | 2.6 (≈ 5.41 µM) | C=C1C(=O)[C@]23[C@H](OC(=O)c4cccc(C)c4)[C@H]1CC[C@H]2[C@@]12CO[C@@]3(O)[C@@H](O)[C@@H]1C(C)(C)CCC2=O [BS-OR-008]

Each compound was assayed on K562/ADR (assay: Leukemia cell growth inhibition, MTT, 72 h). Details: Homo sapiens.
Format: cell-based
Text: as §3
as §1, with “6000 well-growing leukemia cells were” for “6000 well-growing cells were”, “C. and was incubated for” for “C. and incubated for”

IC50 [µg/mL] | IC90 [µg/mL] | SMILES
0.52 (≈ 1.08 µM) | 2.33 (≈ 4.85 µM) | C=C1C(=O)[C@]23[C@H](OC(=O)c4cccc(C)c4)[C@H]1CC[C@H]2[C@@]12CO[C@@]3(O)[C@@H](O)[C@@H]1C(C)(C)CCC2=O [BS-OR-008]

These compounds were tested on Kasumi-1 (assay: Leukemia cell growth inhibition, MTT, 72 h). Details: Homo sapiens.
Format: cell-based
Text: as §3
as §1, with “6000 well-growing leukemia cells were” for “6000 well-growing cells were”, “C. and was incubated for” for “C. and incubated for”

IC50 [µg/mL] | IC90 [µg/mL] | SMILES
0.73 (≈ 1.52 µM) | 1.84 (≈ 3.83 µM) | C=C1C(=O)[C@]23[C@H](OC(=O)c4cccc(C)c4)[C@H]1CC[C@H]2[C@@]12CO[C@@]3(O)[C@@H](O)[C@@H]1C(C)(C)CCC2=O [BS-OR-008]
